Experimental data as given in patent publication US6090786A, “Serine proteases, their activity and their synthetic inhibitors” (priority 1994, dated 2000).

Legend:
[1] = Functional stability of DPPIV inhibitors in the reaction medium (buffer); format: physicochemical; conditions: 50 mM TRIS buffer pH 8.3, 37° C.
Method: (§1) To determine the functional stability of the inhibitors in the reaction medium, a 10 mM stock solution in DMSO was diluted 50-fold in 50 mM TRIS buffer pH 8.3 and incubated at 37° C. To determine the functional stability in plasma, a 50 mM stock solution in DMSO was diluted 50-fold in fresh or freshly frozen citrated plasma from a healthy donor and incubated at 37° C. At specific time intervals an aliquot was withdrawn, added to an equal volume of DPPIV diluted in buffer or to an equal volume of plasma and the kinetics of inactivation were determined as described under b). The reduction in observed pseudo-first order rate constant is a measure for the amount of functional inhibitor lost during the incubation and allowed to estimate the half-life of the inhibitors in buffer and plasma. The following table lists the results.

[2] = Functional stability of DPPIV inhibitors in human citrated plasma; format: in vitro ADME; conditions: 37° C.
Method: as §1

[3] = In vivo testing in rabbits, single intravenous injection
Method: In order to test the effect of the inhibitors in vivo rabbits were injected with the inhibitor and their DPPIV activity was tested using Gly-Pro-4-Methoxy-2-naphthylamide as the substrate.
4 Rabbits received a single 5 ml intravenous-(ear vein) injection of physiological saline cobtaining 0 (control), 1 mg, 5 mg and 10 mg AB 3, respectively. Blood samples were taken from the central ear artery 5 min before injection and at different points of time, directly after the injection, after 4 hrs and after 1, 2, 3, 6 and 13 days.
Counts of white and red blood cells and platelets, serum DPPIV activity and serum bilirubin, GOT, GPT, GT, LDH, creatinine, Na, K, CK and urea were evaluated.

SMILES: Cl.O=C([C@@H]1CCCN1)N1CCCC1P(=O)(Oc1ccccc1)Oc1ccccc1 (stereo partly drawn) [Pro-Pro^P -(OPh)2, Diphenyl (S,R)-1-[(S)-prolyl]pyrrolidine-2-phophonate hydrochloride]
- t1/2 in buffer [1]: 3.5 ± 0.1 h
- t1/2 in plasma [2]: 4.1 ± 0.3 h
- death of the animal ([3]; rabbit receiving 10 mg i.v.): died after 11 days
- biochemical and hematological parameters ([3]; rabbit receiving 10 mg i.v., at day 6): normal
- cell counts (white and red blood cells, platelets) and serum biochemical parameters ([3]; rabbits, single i.v. injection of 1 mg, 5 mg or 10 mg, up to 13 days, DPPIV enzyme activity excepted): No differences
